# Data: patent US12404304B1, “Telomerase reverse transcriptase (TERT) expression enhancing compounds and methods for using the same” (Sierra Sciences, LLC, priority 2007, dated 2025)
# How the values were obtained:
# [1] = test system: human TERT expression (hTERT mRNA); assay: Quantitative real-time RT-PCR of hTERT mRNA expression (Ct, transcripts) in compound-treated cells; type: cell-based; conditions: quantitative real-time RT-PCR
# Description: Telomerase is a ribonucleoprotein complex composed of the catalytic protein subunit (human telomerase reverse transcriptase or hTERT) and the RNA template. hTERT expression level can be measured by PCR.
# Briefly, amplification of the target sequence is monitored per PCR cycle by detecting the fluorescence signal emitted by an internal probe that is degraded by the 5′ nuclease activity of the Taq polymerase. The emission signal accumulates in each sample, and the Ct required to reach a given fluorescence threshold is determined (Ct stands for Cycle Threshold and is a measure of the number of PCR cycles that are required to amplify a target—thus, a lower Ct score means that there is more abundant hTERT mRNA). Thus, the Ct value of a sample inversely correlates to the quantity of the starting cDNA which correlates to the number of mRNA transcripts. Using the cDNA of known quantity, a standard curve can be generated and used to determine the starting amount of mRNA transcripts based on the […] of each sample.
# Quantitative real-time PCR can be done on cDNA from test compound-treated and nontreated cells by use of a ABI Prism 7900 Sequence Detection System (PE Applied Biosystems, Foster City, CA) following the Assays-on-Demand protocol (PE Applied Biosystems, Foster City, CA). Quantitative data can be analyzed using the Sequence Detection System software version 2.1 (PE Applied Biosystems).
# The following compounds were tested in assays designed to identify compounds that enhance human TERT expression.
# viable cells in culture = assay: Cell viability assay (CellTiter-Glo Luminescent Cell Viability Assay, ATP quantitation, percent of vehicle control)
SMILES,Average Number of hTERT Transcripts [1],Average Cell Viability after 24 Hours (% DMSO) (viable cells in culture)
CCc1c(C)nn(-c2nc3ccccc3s2)c1O [compound 1114],148.58,89.40
CC1=NN(c2ccccc2)C(=O)C1C(=O)c1ccc(Br)cc1 (stereo not shown) [compound 1115],59.18,81.68
Oc1cc(CSc2ccc(Cl)cc2)nn1-c1ccccc1 [compound 1116],102.70,75.26
Cc1c2c(=O)n(-c3nc4ccccc4s3)nc-2cc(O)n1Cc1ccccc1 [compound 1117],57.88,84.16
Cc1nnc(SCC2=NN(c3nc4ccccc4[nH]3)C(=O)C2)s1 [compound 1118],54.45,73.41
O=C1CC(CSc2nnnn2-c2ccccc2)=NN1c1nc2ccccc2[nH]1 [compound 1119],125.15,62.38
Cc1ccc(-c2cc(O)n(-c3nc4ccccc4[nH]3)n2)cc1 [compound 1120],118.82,52.50
Oc1cc(-c2ccc(Cl)cc2)nn1-c1nc2ccccc2[nH]1 [compound 1121],119.73,52.77
CCCC1=NN(c2ccc(Cl)cc2)C(=O)C1 [compound 1122],13.40,66.57
Cc1csc(-n2nc(C)c(CC(=O)Nc3ccc(Br)cc3)c2O)n1 [compound 1123],58.23,79.37
CCCCNC(=O)Cc1c(C)nn(-c2nc(C)c(C)s2)c1O [compound 1124],34.96,87.04
Cc1nc(-n2nc(C)c(CC(=O)N3CCN(c4ccc(F)cc4)CC3)c2O)sc1C [compound 1125],82.95,78.39
Cc1nc(-n2nc(C)c(CC(=O)N3CCCCC3)c2O)sc1C [compound 1126],75.66,95.13
CCOC(=O)N1CCN(C(=O)Cc2c(C)nn(-c3nc(C)c(C)s3)c2O)CC1 [compound 1127],20.86,92.15
Cc1nc(-n2nc(C)c(CC(=O)Nc3ccc(F)cc3)c2O)sc1C [compound 1128],42.25,86.93
CCCCc1c(C)nn(-c2nc(C)c(C(=O)OCC)s2)c1O [compound 1129],54.36,68.77
CCOC(=O)c1sc(-n2nc(C)c(Cc3ccc(C)cc3)c2O)nc1C [compound 1130],31.93,70.45
CCOC(=O)c1sc(-n2nc(C)c(Cc3ccc(Cl)cc3)c2O)nc1C [compound 1131],95.19,75.57
Cc1csc(-n2nc(C)c(CCC(=O)Nc3ccc(F)cc3)c2O)n1 [compound 1132],81.62,91.26
Cc1csc(-n2nc(C)c(CCC(=O)Nc3ccc(Br)cc3)c2O)n1 [compound 1133],108.84,77.29
Cc1csc(-n2nc(C)c(CCC(=O)Nc3ccc(Cl)cc3)c2O)n1 [compound 1134],127.97,87.25
CCCCNC(=O)CCc1c(C)nn(-c2nc(C)c(C)s2)c1O [compound 1135],23.88,88.69

SMILES,Average Number of hTERT Transcripts [1],Average Cell Viability after 24 Hours (% DMSO) (viable cells in culture)
Cc1nc(-n2nc(C)c(CCC(=O)N3CCN(c4ccc(F)cc4)CC3)c2O)sc1C [compound 1136],135.61,90.51
Cc1nc(-n2nc(C)c(CCC(=O)N3CCCCC3)c2O)sc1C [compound 1137],81.62,81.10
Cc1nc(-n2nc(C)c(CCC(=O)Nc3ccc(F)cc3)c2O)sc1C [compound 1138],162.66,87.23
Cc1nc(-n2nc(C)c(CCC(=O)Nc3ccc(Br)cc3)c2O)sc1C [compound 1139],19.61,74.45
Cc1nnc(SCc2cc(O)n(-c3nc4ccccc4s3)n2)s1 [compound 1141],19.39,71.38
Cc1ccc(Cc2c(C)nn(-c3nc4ccccc4[nH]3)c2O)cc1 [compound 1143],22.65,35.07
Cc1nn(-c2nc3ccccc3[nH]2)c(O)c1Cc1ccccc1Cl [compound 1144],54.47,40.68
Cc1nn2c(=O)c(Cc3ccccc3)c(C)[nH]c2c1-c1ccc(Cl)cc1 [compound 1145],76.07,63.03
Cc1[nH]c2c(-c3ccc(Cl)cc3)cnn2c(=O)c1Cc1ccccc1 [compound 1146],57.84,63.23
Cc1[nH]c2c(-c3cccc(Br)c3)cnn2c(=O)c1Cc1ccccc1 [compound 1147],29.83,61.72
O=c1cc(Cc2ccccc2)[nH]c2c(-c3ccccc3)c(-c3ccccc3)nn12 [compound 1148],108.34,88.31
O=c1cc(Cc2ccccc2)[nH]c2c(-c3ccc(Cl)cc3)cnn12 [compound 1149],91.14,87.19
COc1ccc(-c2cc(=O)n3nc(C)c(-c4ccccc4)c3[nH]2)cc1 [compound 1150],80.37,86.82
Cc1ccc(-c2cc(=O)n3nc(C)c(-c4ccccc4)c3[nH]2)cc1 [compound 1151],164.58,77.04
Cc1nn2c(=O)cc(-c3ccccc3)[nH]c2c1-c1ccc(F)cc1 [compound 1152],64.86,73.68
Cc1nn2c(=O)c(Cl)c(C)[nH]c2c1-c1ccccc1 [compound 1153],5.84,88.39
COc1ccc(-c2cc(=O)n3nc(C)c(-c4ccc(F)cc4)c3[nH]2)cc1 [compound 1154],48.37,69.15
CCCc1c(C)[nH]c2c(-c3ccc(Cl)cc3)c(C)nn2c1=O [compound 1155],15.30,80.19
Cc1nn2c(=O)cc(-c3ccc(Cl)cc3)[nH]c2c1-c1ccccc1 [compound 1156],45.97,61.07
Cc1cc(=O)n2ncc(-c3ccc(Cl)cc3)c2[nH]1 [compound 1157],16.13,71.08
CCCc1cc(=O)n2ncc(-c3ccc(Cl)cc3)c2[nH]1 [compound 1158],71.35,62.57
O=c1c2c([nH]c3c(-c4ccc(Cl)cc4)cnn13)CCCC2 [compound 1159],5.22,55.24
